From publication PMC11945486, “TAS1R2/TAS1R3 Single-Nucleotide Polymorphisms Affect Sweet Taste Receptor Activation by Sweeteners: The SWEET Project” (Nutrients, 2025)

Biological target: T1, human TAS1R2-WT (subunit alone) (Homo sapiens, UniProt Q8TE23)
T1 construct: expressed in transfected cells; host or cells: HEK293T-Gα16gust44
T1 sequence (Q8TE23 20-839): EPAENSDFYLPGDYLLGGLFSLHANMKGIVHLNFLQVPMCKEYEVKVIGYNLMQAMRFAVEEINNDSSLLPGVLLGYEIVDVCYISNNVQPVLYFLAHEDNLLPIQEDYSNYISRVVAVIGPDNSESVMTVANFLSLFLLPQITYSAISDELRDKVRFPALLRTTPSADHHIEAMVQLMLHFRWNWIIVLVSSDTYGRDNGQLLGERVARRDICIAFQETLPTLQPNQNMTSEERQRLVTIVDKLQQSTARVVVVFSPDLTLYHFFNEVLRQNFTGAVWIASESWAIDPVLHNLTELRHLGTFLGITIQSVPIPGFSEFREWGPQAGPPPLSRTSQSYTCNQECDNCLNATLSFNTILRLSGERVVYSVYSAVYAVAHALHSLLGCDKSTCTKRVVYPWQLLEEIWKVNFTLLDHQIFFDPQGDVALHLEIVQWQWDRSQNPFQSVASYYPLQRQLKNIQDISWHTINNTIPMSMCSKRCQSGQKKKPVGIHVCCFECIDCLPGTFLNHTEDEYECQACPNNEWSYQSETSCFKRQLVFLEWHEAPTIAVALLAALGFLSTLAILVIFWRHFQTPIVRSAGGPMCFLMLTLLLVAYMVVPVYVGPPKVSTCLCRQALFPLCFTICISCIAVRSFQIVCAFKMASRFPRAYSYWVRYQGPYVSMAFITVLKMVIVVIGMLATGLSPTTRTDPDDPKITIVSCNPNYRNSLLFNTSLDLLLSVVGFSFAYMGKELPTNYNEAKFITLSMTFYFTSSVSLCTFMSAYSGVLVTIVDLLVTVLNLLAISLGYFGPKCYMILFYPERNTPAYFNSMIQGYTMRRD
Assay: Calcium mobilisation assay, TAS1R2-WT subunit alone
Type: cell-based
Text: The coding sequences for TAS1R2 and TAS1R3 were commercially synthesised, and the human codon was optimised for expression in human cells. The coding sequences of human TAS1R2 and TAS1R3 were subcloned and inserted into the mammalian expression vectors pcDNA6/myc-HisA and pcDNA4/myc-HisA (Invitrogen; Thermo Fisher Scientific; Illkirch, France) between the EcoRI and NotI restriction sites, generating the plasmids pcDNA6-TAS1R2 and pcDNA4-TAS1R3, respectively. To increase protein expression in mammalian cells, an upstream start codon was used, which was a sequence called MAX, corresponding to the QBI SP163 element also described in pcDNA4-HisMax (Invitrogen; Thermo Fisher Scientific; Illkirch, France). To measure the expression level of the receptor by immunohistochemistry, we used the FLAG sequence ([…]) in the C-terminal position, which encodes the FLAG tag epitope. […]
The HEK293T cells were kindly provided by Jay P. Slack (Givaudan Flavors Corporation; Cincinnati, OH, USA). […] The fluorescence intensity was measured for 90 s (excitation 488 nm, emission 510 nm) in an automated fluorometric FlexStation®3 Multi-Mode microplate reader (Molecular Devices; San Jose, CA, USA). […] The Ca^2+ changes were expressed as fractional changes in fluorescent light intensity: ΔF/F = (F − F0)/F0, where F was the fluorescent light intensity at each point, and F0 was the value of emitted fluorescent light prior to stimulus application. To calculate dose–response relationships, the changes in fluorescence upon stimulus application were averaged, mock-subtracted and baseline-corrected. […] The half-maximal effective concentrations (EC50 values) and maximal signal amplitudes were calculated using SigmaPlot software (version 15.0) (Systat Software; San Jose, CA, USA).
For in vitro calcium mobilisation assay performed on hTAS1R2-SNPs, hTAS1R3-SNPs and mTAS1R3-I60T, 6 to 7 concentrations were tested for each sweet compound, plus buffer alone. All concentration–receptor combinations were measured in duplicate, and each experiment was repeated at least 4 times (8 wells/concentration). […]

EC50: 90 ± 17 µM
R1 = Variant EC50/WT EC50: 1.0
Max ΔF/F0 (maximal signal amplitude): 1.06 ± 0.06
Compound: C=C(C)[C@@H]1CC=C(/C=N/O)CC1 [Perillartine, perillartine]
